Laboratory results as given in PubChem BioAssay AID1919004 (Molecular Pharmacology Branch, DTP, NCI, 2023).

Test system: 883617-216-R-J1-PDC complex spheroids, growth, % test/control
Assay: Anticancer human tumor 883617-216-R-J1-PDC patient-derived bladder carcinoma cell line growth inhibition [AhR]
Details: for IC50: curve of first compound; for viability, T/C: stronger effect = lower value
In short: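 Agents were dosed in half-log steps down from roughly clinical Cmax, or from 10 microM where Cmax was unknown, alone and with AhR antagonists. Read-out: percent test/control growth of tumor spheroids containing HUVEC and MSC stromal cells.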

[1] = second compound 0.1 µM, first compound 0.0316 µM
[2] = second compound 0.1 µM, first compound 0.1 µM
[3] = second compound 0.1 µM, first compound 0.316 µM
[4] = second compound 0.1 µM, first compound 1 µM
[5] = second compound 0.1 µM, first compound 3.16 µM
[6] = second compound 0.1 µM, first compound 10 µM
[7] = second compound 0.316 µM, first compound 0.0316 µM
[8] = second compound 0.316 µM, first compound 0.1 µM
[9] = second compound 0.316 µM, first compound 0.316 µM
[10] = second compound 0.316 µM, first compound 1 µM
[11] = second compound 0.316 µM, first compound 3.16 µM
[12] = second compound 0.316 µM, first compound 10 µM
[13] = second compound 1 µM, first compound 0.0316 µM
[14] = second compound 1 µM, first compound 0.1 µM
[15] = second compound 1 µM, first compound 0.316 µM
[16] = second compound 1 µM, first compound 1 µM
[17] = second compound 1 µM, first compound 3.16 µM
[18] = second compound 1 µM, first compound 10 µM
[19] = second compound 3.16 µM, first compound 0.0316 µM
[20] = second compound 3.16 µM, first compound 0.1 µM
[21] = second compound 3.16 µM, first compound 0.316 µM
[22] = second compound 3.16 µM, first compound 1 µM
[23] = second compound 3.16 µM, first compound 3.16 µM
[24] = second compound 3.16 µM, first compound 10 µM
[25] = second compound 10 µM, first compound 0.0316 µM
[26] = second compound 10 µM, first compound 0.1 µM
[27] = second compound 10 µM, first compound 0.316 µM
[28] = second compound 10 µM, first compound 1 µM
[29] = second compound 10 µM, first compound 3.16 µM
[30] = second compound 10 µM, first compound 10 µM
[31] = second compound 0.1 µM, first compound 0.00316 µM
[32] = second compound 0.1 µM, first compound 0.01 µM
[33] = second compound 0.316 µM, first compound 0.00316 µM
[34] = second compound 0.316 µM, first compound 0.01 µM
[35] = second compound 1 µM, first compound 0.00316 µM
[36] = second compound 1 µM, first compound 0.01 µM
[37] = second compound 3.16 µM, first compound 0.00316 µM
[38] = second compound 3.16 µM, first compound 0.01 µM
[39] = second compound 10 µM, first compound 0.00316 µM
[40] = second compound 10 µM, first compound 0.01 µM
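Further: exposure lasted 7 days after dosing on day 3 of spheroid growth.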

Row | Structure (SMILES) | IC50 (second compound 0.1 µM) [nM] | IC50 (second compound 0.316 µM) [nM] | IC50 (second compound 1 µM) [nM] | IC50 (second compound 3.16 µM) [nM] | IC50 (second compound 10 µM) [nM] | viability, T/C [1] [%] | viability, T/C [2] [%] | viability, T/C [3] [%] | viability, T/C [4] [%] | viability, T/C [7] [%] | viability, T/C [8] [%] | viability, T/C [9] [%] | viability, T/C [10] [%] | viability, T/C [13] [%] | viability, T/C [14] [%] | viability, T/C [15] [%] | viability, T/C [19] [%] | viability, T/C [20] [%] | viability, T/C [25] [%] | viability, T/C [26] [%] | also measured
1 | CC(C)c1c(-c2ccccc2)nc2c(C#N)c[nH]n2c1=O + Cc1ccccc1N=Nc1ccc(NC(=O)c2ccnn2C)c(C)c1 | > 10000 | > 10000 | > 10000 | > 10000 | > 10000 | 91.7 | 101 | 85.9 | 103 | 99.1 | 94.6 | 86.6 | 93.9 | 84 | 85 | 87.7 | 87.7 | 89.6 | 75.4 | 78.3 | viability, T/C [5]: 101%; viability, T/C [6]: 93.7%; viability, T/C [11]: 86%; viability, T/C [12]: 91.1%; viability, T/C [16]: 84.8%; viability, T/C [17]: 91%; viability, T/C [18]: 91.6%; viability, T/C [21]: 72.8%; viability, T/C [22]: 84.5%; viability, T/C [23]: 82.9%; viability, T/C [24]: 77.7%; viability, T/C [27]: 82.1%; viability, T/C [28]: 79.3%; viability, T/C [29]: 75.9%; viability, T/C [30]: 82.9%
2 | CC[C@@]1(O)C(=O)OCc2c1cc1n(c2=O)Cc2cc3c(CN(C)C)c(O)ccc3nc2-1 + Cc1cncc(-c2nc(NCCc3c[nH]c4ccccc34)c3ncn(C(C)C)c3n2)c1 | > 100 | > 100 | > 100 | > 100 | < 0.316 | 69.8 | 74.3 | – | – | 68.1 | 64.7 | – | – | 88.9 | 76.7 | – | 84.6 | 73.1 | 35.4 | 32.1 | viability, T/C (second compound 0.1 µM, first compound 0.000316 µM): 76.2%; viability, T/C (second compound 0.1 µM, first compound 0.001 µM): 75.1%; viability, T/C [31]: 79.8%; viability, T/C [32]: 71%; viability, T/C (second compound 0.316 µM, first compound 0.000316 µM): 86.3%; viability, T/C (second compound 0.316 µM, first compound 0.001 µM): 80.7%; viability, T/C [33]: 74.3%; viability, T/C [34]: 79.4%; viability, T/C (second compound 1 µM, first compound 0.000316 µM): 93.5%; viability, T/C (second compound 1 µM, first compound 0.001 µM): 93.9%; viability, T/C [35]: 83.9%; viability, T/C [36]: 85.6%; viability, T/C (second compound 3.16 µM, first compound 0.000316 µM): 96.6%; viability, T/C (second compound 3.16 µM, first compound 0.001 µM): 84.6%; viability, T/C [37]: 89.7%; viability, T/C [38]: 91.9%; viability, T/C (second compound 10 µM, first compound 0.000316 µM): 45.7%; viability, T/C (second compound 10 µM, first compound 0.001 µM): 47.8%; viability, T/C [39]: 47.9%; viability, T/C [40]: 46.8%
3 | COc1cc(C2c3cc4c(cc3C(OC3OC5COC(C)OC5C(O)C3O)C3COC(=O)C23)OCO4)cc(OC)c1O (stereo not given) + Cc1cncc(-c2nc(NCCc3c[nH]c4ccccc34)c3ncn(C(C)C)c3n2)c1 | > 10000 | > 10000 | > 10000 | > 10000 | 68.8 | 77.3 | 81.3 | 70 | 66.8 | 84.9 | 81.1 | 73.6 | 65.3 | 91.4 | 86.4 | 78.7 | 89.9 | 89 | 51.4 | 50.3 | viability, T/C [5]: 69.6%; viability, T/C [6]: 57.4%; viability, T/C [11]: 64.1%; viability, T/C [12]: 60.9%; viability, T/C [16]: 71.5%; viability, T/C [17]: 81.4%; viability, T/C [18]: 64.7%; viability, T/C [21]: 80.1%; viability, T/C [22]: 79%; viability, T/C [23]: 70%; viability, T/C [24]: 65.6%; viability, T/C [27]: 49.9%; viability, T/C [28]: 39.1%; viability, T/C [29]: 41.5%; viability, T/C [30]: 45.5%
4 | COc1cccc2c1C(=O)c1c(O)c3c(c(O)c1C2=O)CC(O)(C(=O)CO)CC3OC1CC(N)C(O)C(C)O1 (stereo not given) + Cc1cncc(-c2nc(NCCc3c[nH]c4ccccc34)c3ncn(C(C)C)c3n2)c1 | 393 | 437 | 404 | 400 | < 31.6 | 74.5 | 66.3 | 57.9 | 18.8 | 65.3 | 62.6 | 64.4 | 14 | 81.8 | 74.5 | 62.1 | 77.1 | 75 | 41.7 | 37.4 | viability, T/C [5]: 0.11%; viability, T/C [6]: 0.16%; viability, T/C [11]: 0.05%; viability, T/C [12]: 0.15%; viability, T/C [16]: 5.5%; viability, T/C [17]: 0.05%; viability, T/C [18]: 1.21%; viability, T/C [21]: 62.7%; viability, T/C [22]: 0.89%; viability, T/C [23]: 0.17%; viability, T/C [24]: 1.17%; viability, T/C [27]: 34.3%; viability, T/C [28]: 0.82%; viability, T/C [29]: 0.12%; viability, T/C [30]: 0.16%
5 | Nc1ccn(C2OC(CO)C(O)C2(F)F)c(=O)n1 (stereo not given) + Cc1cncc(-c2nc(NCCc3c[nH]c4ccccc34)c3ncn(C(C)C)c3n2)c1 | < 31.6 | < 31.6 | < 31.6 | 70.8 | < 31.6 | 32.6 | 39.7 | 43.1 | 41.3 | 34.5 | 38.8 | 44.9 | 38.4 | 46.1 | 33.8 | 39.3 | 71.3 | 39.3 | 33.1 | 16.4 | viability, T/C [5]: 44%; viability, T/C [6]: 38.9%; viability, T/C [11]: 39.5%; viability, T/C [12]: 39.4%; viability, T/C [16]: 37.5%; viability, T/C [17]: 41.9%; viability, T/C [18]: 43.4%; viability, T/C [21]: 40.6%; viability, T/C [22]: 41.2%; viability, T/C [23]: 43.5%; viability, T/C [24]: 39.1%; viability, T/C [27]: 13.5%; viability, T/C [28]: 10.9%; viability, T/C [29]: 15.8%; viability, T/C [30]: 18%
6 | Nc1ncn(C2CC(O)C(CO)O2)c(=O)n1 (stereo not given) + Cc1cncc(-c2nc(NCCc3c[nH]c4ccccc34)c3ncn(C(C)C)c3n2)c1 | > 1000 | > 1000 | > 1000 | > 1000 | < 3.16 | 76.2 | 73.1 | 77.9 | 67.7 | 84.5 | 74.1 | 71.3 | 79.6 | 84.8 | 77.2 | 86.1 | 104 | 99.8 | 45.2 | 47.7 | viability, T/C [31]: 81.2%; viability, T/C [32]: 76.9%; viability, T/C [33]: 92.2%; viability, T/C [34]: 89.5%; viability, T/C [35]: 92.1%; viability, T/C [36]: 89.8%; viability, T/C [16]: 78.7%; viability, T/C [37]: 97.2%; viability, T/C [38]: 87.5%; viability, T/C [21]: 103%; viability, T/C [22]: 84.2%; viability, T/C [39]: 43.5%; viability, T/C [40]: 42.6%; viability, T/C [27]: 51.2%; viability, T/C [28]: 55%
